≈ marks a conversion by molar mass, not a printed value. Like-named read-outs stand apart in the source and are kept apart here.
Tests used:
[1] = Pharmacokinetic studies, single oral dose; assay type: in vivo, Wistar Rats; settings: rats, 100 mg/kg single oral dose
Experimental: For in vivo pharmacokinetic studies, female Wistar Rats were used. The animals were divided into 3 groups (n=3). […] The blood samples (0.5 ml) were withdrawn from retro-orbital plexus at different time intervals and collected into microcentrifuge tubes containing EDTA. Plasma was separated by centrifuging the blood samples at 10000 rpm for 6 min at 5° C. After centrifugation, the plasma obtained was stored at −20° C. until analysis. […] To 50 μl of plasma samples in an eppendorf tube, 150 μl of methanol and 300 μl of acetonitrile:water (1:1) was added. The sample was vortexed for 5 min and centrifuged at 15,000 rpm to separate precipitated proteins. Supernatant was transferred to suitably labelled tubes. The sample was filtered through 0.2 μm syringe filter and was used for analysis using the developed Ultra high pressure liquid chromatography (UPLC) method. The pharmacokinetic parameters were calculated using non-compartmental model. The area under the concentration-time curve from time zero to time t (AUCo-t) was calculated using the trapezoidal method. Peak concentration (Cmax) and the time at which the peak concentration is achieved (Tmax), were obtained directly from the individual concentration-time profiles. All values were corrected for the spiked concentration. The area under the concentration-time curve from time zero to infinity was calculated by: AUCo-x=AUCo-+Ct/Ke, where Ct is the drug concentration observed at the last time and Ke is the apparent elimination rate constant obtained from the terminal slope of the individual concentration-time curves after logarithmic transformation of the concentration values and application of linear regression. AUMC was determined by plotting concentration*time (ct) versus time (t) using trapezoidal method. Mean residence time (MRT) was calculated by: MRT=AUMC/AUC.

[2] = Degradation studies (hydrolytic stability at pH 1.2, 6.8, 7.4 and 9); assay type: physicochemical; settings: for k value: zero order
Experimental: It was further diluted to 5 μg/ml with respective buffers (pH 1.2, pH 6.8, pH 7.4 and pH 9). In case of C-SLNaq, Iml dispersion was placed in a dialysis bag and dialyzed against methanol (100 ml) at room temperature for 45 minutes to remove unentrapped drug. […] The stock solution and sample solution were prepared in amber coloured volumetric flasks to avoid photodegradation. The solutions were prepared and incubated at 37° C. […] […] Presence of water quenches the fluorescent intensity of curcumin. The samples were thus analysed subsequently using the UV/Visible spectrophotometer at λmax425 nm. The absorbance read at zero time was considered as 100% and change in concentration and % degradation was determined accordingly.
The graph between concentration versus time, log concentration versus time and percent drug remaining versus time were plotted.

[3] = In-vitro release (Franz-diffusion cells, dialysis membrane); assay type: physicochemical
Experimental: Jacketed franz-diffusion cells were used for the determination of in-vitro release of free curcumin and curcumin from C-SLNaq. These cells consist of the donor and the receptor chamber between which dialysis membrane is positioned. The dialysis membrane was soaked in double distilled water for 12 h prior to use. The whole system was water jacketed and thermostatically controlled by an external circulating water bath at 37° C.±1° C. The used receptor media consisted of 50% ethanol in distilled water. […] The receptor media was stirred throughout the experiment, using a magnetic stirrer. Iml aliquots were withdrawn regularly from the receptor compartment at various times starting at 30 min and replaced by an equal volume of fresh receptor medium. The samples were analysed, immediately, spectrophotometrically at 425 nm.

[4] = Solubility of curcumin; assay type: physicochemical
[5] = Photostability study (ICH); assay type: physicochemical
Experimental: The above samples were placed in photostability chamber and exposed to light providing illumination of not less than 1.2 million lux hours for 10 days. After 10 days the containers were withdrawn and […] evaluated for total drug content, entrapment efficiency, particle size, zeta-potential and PDI. Samples of free drug, […] and C-SLNbent were analysed for total drug content.

[6] = combined with piperine, rats (Shoba et al., 1998); cited from earlier work

For `COc1cc(C=CC(=O)CC(=O)C=Cc2ccc(O)c(OC)c2)ccc1O` [Free curcumin, 1,7-bis(4-hydroxy-3-methoxyphenyl)-1,6-hepadiene-3,5-dione], the AUC(0-inf) ([1]; female, Wistar, rat, plasma) was 2.69 ng·h/mL, the Cmax ([1]; female, Wistar, rat, plasma) was 1.79 ng/mL and the MRT ([1]; female, Wistar, rat, plasma) was 2 h. For the same compound, the Tmax ([1]; female, Wistar, rat, plasma) was 2 h, the “AUMC0-∞” value [1] was 5.38 h^2*ng/ml and the half-life at 5 μg/ml ([2]; alkaline borate buffer pH 9, pH 9) was 0.669 h. For the same compound, the half-life at 5 μg/ml ([2]; buffer pH 1.2, pH 1.2) was 17.3 h, the “order of degradation kinetics” value ([2]; investigated pH conditions (C-SLN: except pH 9)) was “zero order” and the Percentage remaining ([2]; pH 1.2, 0 h) was 100.00 ± 0.06%. The Percentage remaining ([2]; pH 1.2, 0.08 h) was 89.23 ± 0.02%, the Percentage remaining ([2]; pH 1.2, 0.25 h) was 88.29 ± 0.01% and the Percentage remaining ([2]; pH 1.2, 0.5 h) was 85.60 ± 0.01%. The Percentage remaining ([2]; pH 1.2, 1 h) was 87.24 ± 0.001%, the Percentage remaining ([2]; pH 1.2, 2 h) was 72.37 ± 0.02% and the Percentage remaining ([2]; pH 1.2, 3 h) was 68.74 ± 0.03%. For the same compound, the Percentage remaining ([2]; pH 1.2, 4 h) was 62.76 ± 0.01%, the Percentage remaining ([2]; pH 1.2, 5 h) was 61.01 ± 0.01% and the Percentage remaining ([2]; pH 1.2, 6 h) was 53.40 ± 0.02%. For the same compound, the Percentage remaining ([2]; pH 1.2, 24 h) was 15.76 ± 0.01%, the degradation ([2]; pH 1.2, 24 h) was no more than 85% and the degradation ([2]; pH 1.2, upto 6 h) was no more than 50%. For the same compound, the degradation ([2]; pH 1.2 medium, 4h) was roughly 40%, the Percentage remaining ([2]; pH 6.8, 0 h) was 100.00 ± 0.04% and the Percentage remaining ([2]; pH 6.8, 0.08 h) was 94.93 ± 0.06%. It also gave a Percentage remaining ([2]; pH 6.8, 0.25 h) of 87.63 ± 0.04%, a Percentage remaining ([2]; pH 6.8, 0.5 h) of 81.95 ± 0.08% and a Percentage remaining ([2]; pH 6.8, 1 h) of 79.72 ± 0.06%. The Percentage remaining ([2]; pH 6.8, 2 h) was 66.73 ± 0.05%, the Percentage remaining ([2]; pH 6.8, 3 h) was 62.68 ± 0.07% and the Percentage remaining ([2]; pH 6.8, 4 h) was 57.81 ± 0.05%. The Percentage remaining ([2]; pH 6.8, 5 h) was 43.61 ± 0.08%, the Percentage remaining ([2]; pH 6.8, 6 h) was 23.12 ± 0.04% and the degradation ([2]; pH 6.8, 6 h) was 77%. For the same compound, the Percentage remaining ([2]; pH 6.8, 24 h) was 11.36 ± 0.04%, the degradation ([2]; pH 6.8, 24 h) was 89% and the Percentage remaining ([2]; pH 7.4, 0 h) was 100.0 ± 0.060%. It also gave a Percentage remaining ([2]; pH 7.4, 0.08 h) of 96.33 ± 0.02%, a Percentage remaining ([2]; pH 7.4, 0.25 h) of 93.81 ± 0.04% and a Percentage remaining ([2]; pH 7.4, 0.5 h) of 84.17 ± 0.04%. It also gave a Percentage remaining ([2]; pH 7.4, 1 h) of 75.92 ± 0.04%, a Percentage remaining ([2]; pH 7.4, 2 h) of 67.20 ± 0.03% and a Percentage remaining ([2]; pH 7.4, 3 h) of 61.01 ± 0.03%. The Percentage remaining ([2]; pH 7.4, 4 h) was 49.08 ± 0.04%, the Percentage remaining ([2]; pH 7.4, 5 h) was 40.60 ± 0.03% and the Percentage remaining ([2]; pH 7.4, 6 h) was 24.31 ± 0.01%. For the same compound, the degradation ([2]; pH 7.4, 6 h) was 75%, the Percentage remaining ([2]; pH 7.4, 24 h) was 13.99 ± 0.01% and the degradation ([2]; pH 7.4, 24 h) was 77%. It also gave a Percentage remaining ([2]; pH 9, 0 h) of 100.00 ± 0.004%, a Percentage remaining ([2]; pH 9, 0.08 h) of 82.59 ± 0.009% and a Percentage remaining ([2]; pH 9, 0.25 h) of 61.43 ± 0.004%. For the same compound, the Percentage remaining ([2]; pH 9, 0.5 h) was 32.76 ± 0.006%, the Percentage remaining ([2]; pH 9, 1 h) was 20.48 ± 0.001% and the Percentage remaining ([2]; pH 9, 2 h) was 15.70 ± 0.002%. For the same compound, the Percentage remaining ([2]; pH 9, 3 h) was 9.90 ± 0.003%, the Percentage remaining ([2]; pH 9, 4 h) was 2.39 ± 0.004% and the degradation ([2]; pH 9, 4 h) was “approximately 98%”. For the same compound, the half-life at 5 μg/ml ([2]; phosphate buffer pH 6.8, pH 6.8) was 1.32 h, the half-life at 5 μg/ml ([2]; phosphate buffer pH 7.4, pH 7.4) was 9.4 h and the k value ([2]; pH 1.2) was 0.039. For the same compound, the k value ([2]; pH 6.8) was 0.52, the k value ([2]; pH 7.4) was 0.073 and the k value ([2]; pH 9) was 0.95. The order of release [3] was “first order”, the release model followed [3] was “Hixon model” and the “time over which drug was released” value ([3]; receptor 50% ethanol, 37° C.) was no more than 8 h. For the same compound, the solubility ([4]; 50% (v/v) ethanol, aqueous with cosolvent or surfactant or cyclodextrin) was 693 µg/mL (≈ 1880 µM), the solubility ([4]; water, read-out: aqueous solubility) was 0.6 µg/mL (≈ 1.63 µM) and the solubility ([4]; water, room temperature, read-out: Solubility in water) was 0.003 ± 0.002 µg/mL (≈ 0.00814 µM). For the same compound, the TDC % ([5]; Amber glass, 0 day) was 100.00 ± 0%, the TDC % ([5]; Amber glass, 10 days) was 78.31 ± 7.1% and the TDC % ([5]; Transparent, 0 day) was 100.00 ± 0%. For the same compound, the TDC % ([5]; Transparent, 10 days) was 65.51 ± 7.5%, the degradation ([5]; amber coloured containers, 10 days) was 21.7% and the degradation ([5]; transparent containers, 10 days) was 35%. The “increase in the oral bioavailability” value [6] was 154%.

From patent publication US12599572B2, “Solid lipid nanoparticles of curcumin” (priority 2018, dated 2026)
